Assays:
[1] = test system: Ba/F3 ETV6-NTRK3-G623R cells; assay: Efficacy test in animals: subcutaneous xenograft, intragastric administration; format: in vivo, nude mice; conditions: for TGI (tumor growth inhibition rate): day of dissection; for Tumor inhibition rate (by tumor weight) / Tumor weight: end of the test
Procedure: (§1) Cells in the logarithmic growth phase were collected and resuspended in serum-free medium to a cell concentration of 2-4×10^7 cells/mL. An equal volume of matrigel was added to the cell suspension to achieve a final cell concentration of 1-2×10^7 cells/mL. 0.2 mL of tumor cell suspension was subcutaneously inoculated at the scapula of each nude mouse with the inoculation amount of 2-4×10^6 cells/mouse to prepare the animal models.

Ba/F3 ETV6-NTRK3 cells = assay: as above; format: in vivo, nude mice; conditions: for Relative tumor proliferation rate T/C / Tumor volume: Day 0
Procedure: as §1

## O=C1NC2(CC2)COc2ncc(F)cc2C2COCCN2c2ccn3ncc1c3n2 (single isomer, unassigned) [WX001B]
[1]; 2.5-20 mg/kg
  Inhibition of growth of subcutaneous xenografts: in a dose-dependent manner
[1]; Day 0, 2.5 mg/kg bid
  Relative tumor proliferation rate T/C: 100.00%
  Tumor volume: 200.40 ± 33.16 mm^3
[1]; Day 0, 5 mg/kg bid
  Relative tumor proliferation rate T/C: 100.00%
  Tumor volume: 200.35 ± 32.62 mm^3
[1]; Day 0, 10 mg/kg bid
  Relative tumor proliferation rate T/C: 100.00%
  Tumor volume: 199.55 ± 34.92 mm^3
[1]; Day 0, 20 mg/kg bid
  Relative tumor proliferation rate T/C: 100.00%
  Tumor volume: 199.51 ± 34.71 mm^3
[1]; Day 3, 2.5 mg/kg bid
  Relative tumor proliferation rate T/C: 64.91%
  Tumor volume: 392.17 ± 91.44 mm^3
[1]; Day 3, 5 mg/kg bid
  Relative tumor proliferation rate T/C: 56.84%
  Tumor volume: 343.40 ± 96.52 mm^3
[1]; Day 3, 10 mg/kg bid
  Relative tumor proliferation rate T/C: 35.78%
  Tumor volume: 216.15 ± 52.64 mm^3
[1]; Day 3, 20 mg/kg bid
  Relative tumor proliferation rate T/C: 32.65%
  Tumor volume: 197.28 ± 52.49 mm^3
[1]; Day 5, 2.5 mg/kg bid
  Relative tumor proliferation rate T/C: 42.80%
  Tumor volume: 507.81 ± 127.36 mm^3
[1]; Day 5, 5 mg/kg bid
  Relative tumor proliferation rate T/C: 32.50%
  Tumor volume: 385.61 ± 63.66 mm^3
[1]; Day 5, 10 mg/kg bid
  Relative tumor proliferation rate T/C: 19.67%
  Tumor volume: 233.42 ± 49.88 mm^3
[1]; Day 5, 20 mg/kg bid
  Relative tumor proliferation rate T/C: 13.62%
  Tumor volume: 161.67 ± 45.52 mm^3
[1]; Day 7, 2.5 mg/kg bid
  Relative tumor proliferation rate T/C: 36.00%
  Tumor volume: 689.34 ± 174.38 mm^3
[1]; Day 7, 5 mg/kg bid
  Relative tumor proliferation rate T/C: 29.86%
  Tumor volume: 571.74 ± 105.62 mm^3
[1]; Day 7, 10 mg/kg bid
  Relative tumor proliferation rate T/C: 15.44%
  Tumor volume: 295.60 ± 218.67 mm^3
[1]; Day 7, 20 mg/kg bid
  Relative tumor proliferation rate T/C: 9.61%
  Tumor volume: 184.02 ± 76.71 mm^3
[1]; Day 9, 2.5 mg/kg bid
  Relative tumor proliferation rate T/C: 34.48%
  Tumor volume: 862.41 ± 275.13 mm^3
[1]; Day 9, 5 mg/kg bid
  Relative tumor proliferation rate T/C: 24.33%
  Tumor volume: 608.56 ± 193.58 mm^3
[1]; Day 9, 10 mg/kg bid
  Relative tumor proliferation rate T/C: 11.02%
  Tumor volume: 275.49 ± 176.66 mm^3
[1]; Day 9, 20 mg/kg bid
  Relative tumor proliferation rate T/C: 6.67%
  Tumor volume: 166.80 ± 119.15 mm^3
[1]; Day 11, 2.5 mg/kg bid
  Relative tumor proliferation rate T/C: 31.05%
  Tumor volume: 1079.47 ± 236.62 mm^3
[1]; Day 11, 5 mg/kg bid
  Relative tumor proliferation rate T/C: 18.40%
  Tumor volume: 639.67 ± 102.59 mm^3
[1]; Day 11, 10 mg/kg bid
  Relative tumor proliferation rate T/C: 8.91%
  Tumor volume: 309.67 ± 199.23 mm^3
[1]; Day 11, 20 mg/kg bid
  Relative tumor proliferation rate T/C: 4.89%
  Tumor volume: 169.93 ± 190.60 mm^3
[1]; 2.5 mg/kg bid
  TGI (tumor growth inhibition rate): 68.95%
  Tumor inhibition rate (by tumor weight): 68.72%
  Tumor weight: 0.54 ± 0.24 g
[1]; 5 mg/kg bid
  TGI (tumor growth inhibition rate): 81.60%
  Tumor weight: 0.44 ± 0.13 g
[1]; 10 mg/kg bid
  TGI (tumor growth inhibition rate): 91.09%
  Tumor inhibition rate (by tumor weight): 92.90%
  Tumor weight: 0.12 ± 0.11 g
[1]; 20 mg/kg bid
  TGI (tumor growth inhibition rate): 95.11%
  Tumor inhibition rate (by tumor weight): 95.75%
  Tumor weight: 0.07 ± 0.06 g
[1]; 5 mg/kg bid, 5 mg/kg
  Tumor inhibition rate (by tumor weight): 74.12%
Ba/F3 ETV6-NTRK3 cells; 2.5-20 mg/kg
  Inhibition of growth of subcutaneous xenografts: in a dose-dependent manner
Ba/F3 ETV6-NTRK3 cells; 2.5 mg/kg bid
  Relative tumor proliferation rate T/C: 100.00%
  Tumor volume: 303.54 ± 48.83 mm^3
Ba/F3 ETV6-NTRK3 cells; 5 mg/kg bid
  Relative tumor proliferation rate T/C: 100.00%
  Tumor volume: 303.26 ± 50.47 mm^3
Ba/F3 ETV6-NTRK3 cells; 10 mg/kg bid
  Relative tumor proliferation rate T/C: 100.00%
